Source: US20230265151A1, “GIP/GLP1 CO-AGONIST COMPOUNDS” (priority 2020, published 2023)
Like-named read-outs stand apart in the source and are kept apart here.

Assays:
Assay type in all cases: cell-based
hGIPR = target: T1, hGIPR (Homo sapiens, UniProt P48546); assay: Functional cAMP formation (HTRF) in HEK-293 clonal cells expressing hGIPR, 0.1% bovine casein, without or with 1.0% human serum albumin; conditions: for Emax: percent of maximal response to GIP(1-42)NH2; for EC50: cAMP
T1 construct: expressed in transfected cells
T1 sequence (P48546 22-466): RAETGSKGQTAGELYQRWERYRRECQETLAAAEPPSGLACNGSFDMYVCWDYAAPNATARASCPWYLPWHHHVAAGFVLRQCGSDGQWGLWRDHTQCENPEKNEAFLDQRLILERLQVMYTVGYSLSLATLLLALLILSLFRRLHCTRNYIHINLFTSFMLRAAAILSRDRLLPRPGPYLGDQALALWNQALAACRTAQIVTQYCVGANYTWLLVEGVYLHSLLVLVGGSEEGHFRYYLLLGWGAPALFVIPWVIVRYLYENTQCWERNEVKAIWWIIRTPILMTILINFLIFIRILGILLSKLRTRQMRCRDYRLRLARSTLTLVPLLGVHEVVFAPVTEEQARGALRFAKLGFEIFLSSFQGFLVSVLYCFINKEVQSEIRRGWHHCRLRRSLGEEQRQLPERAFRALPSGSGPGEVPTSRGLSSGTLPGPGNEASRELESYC
Summary of the method: (§1)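 Readings of the HTRF 665/620 nm ratio, which falls as cAMP rises, were converted to nM cAMP using a standard curve after 30 min peptide exposure at 37° C.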

hGLP-1R = hGLP-1R (Homo sapiens, UniProt P43220); assay: Functional cAMP formation (HTRF) in HEK-293 clonal cells expressing hGLP-1R, 0.1% bovine casein, without or with 1.0% human serum albumin; parameters: expressed in transfected cells; conditions: for Emax: percent of maximal response to GLP-1(7-36)NH2; for EC50: cAMP
Summary of the method: as §1

hGCGR = target: T2, hGCGR (Homo sapiens, UniProt P47871); assay: Functional cAMP formation (HTRF) in HEK-293 clonal cells expressing hGCGR, 0.1% bovine casein, without or with 1.0% human serum albumin; conditions: cAMP, 37° C.
T2 construct: expressed in transfected cells
Summary of the method: as §1

[1] = HEK293, read-out: hGIPR Emax, % ± SEM, cAMP, 37° C., 0.1% bovine casein and 1.0% human serum albumin
[2] = hGIPR EC50, nM (SEM, n), 37° C., 0.1% bovine casein (no human serum albumin), geometric mean
[3] = HEK293, read-out: hGLP-1R Emax, % ± SEM, cAMP, 37° C., 0.1% bovine casein and 1.0% human serum albumin
[4] = hGLP-1R EC50, nM (SEM, n), 37° C., 0.1% bovine casein (no human serum albumin), geometric mean
[5] = hGLP-1R EC50, nM (SEM, n), 37° C., 0.1% bovine casein and 1.0% human serum albumin, geometric mean (SEM, n)
[6] = hGCGR EC50, nM (SEM, n), 0.1% bovine casein (no human serum albumin), geometric mean
[7] = hGCGR EC50, nM (SEM, n), 0.1% bovine casein and 1.0% human serum albumin, geometric mean (SEM, n)
[8] = HEK293, cAMP, 37° C., 0.1% bovine casein and 1.0% human serum albumin, read-out: hGIPR Emax, % ± SEM
[9] = 37° C., 0.1% bovine casein (no human serum albumin), geometric mean, read-out: hGIPR EC50, nM (SEM, n)
[10] = 37° C., 0.1% bovine casein (no human serum albumin), geometric mean, read-out: hGLP-1R EC50, nM (SEM, n)
[11] = 0.1% bovine casein (no human serum albumin), geometric mean, read-out: hGCGR EC50, nM (SEM, n)
[12] = 0.1% bovine casein and 1.0% human serum albumin, geometric mean (SEM, n), read-out: hGCGR EC50, nM (SEM, n)

Chain of hGLP-1R (P43220 24-463): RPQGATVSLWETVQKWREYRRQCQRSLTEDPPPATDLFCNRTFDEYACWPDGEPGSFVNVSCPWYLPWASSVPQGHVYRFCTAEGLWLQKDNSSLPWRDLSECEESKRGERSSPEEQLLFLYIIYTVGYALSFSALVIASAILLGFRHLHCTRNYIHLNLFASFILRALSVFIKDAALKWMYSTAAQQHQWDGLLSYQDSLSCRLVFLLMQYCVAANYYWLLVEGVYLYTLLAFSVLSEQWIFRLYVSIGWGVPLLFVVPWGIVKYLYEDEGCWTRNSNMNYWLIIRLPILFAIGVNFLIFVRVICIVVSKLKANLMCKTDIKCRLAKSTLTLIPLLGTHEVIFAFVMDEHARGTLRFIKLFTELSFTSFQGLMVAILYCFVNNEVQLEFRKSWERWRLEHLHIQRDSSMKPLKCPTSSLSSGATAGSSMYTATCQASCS
T2 sequence (P47871 26-477): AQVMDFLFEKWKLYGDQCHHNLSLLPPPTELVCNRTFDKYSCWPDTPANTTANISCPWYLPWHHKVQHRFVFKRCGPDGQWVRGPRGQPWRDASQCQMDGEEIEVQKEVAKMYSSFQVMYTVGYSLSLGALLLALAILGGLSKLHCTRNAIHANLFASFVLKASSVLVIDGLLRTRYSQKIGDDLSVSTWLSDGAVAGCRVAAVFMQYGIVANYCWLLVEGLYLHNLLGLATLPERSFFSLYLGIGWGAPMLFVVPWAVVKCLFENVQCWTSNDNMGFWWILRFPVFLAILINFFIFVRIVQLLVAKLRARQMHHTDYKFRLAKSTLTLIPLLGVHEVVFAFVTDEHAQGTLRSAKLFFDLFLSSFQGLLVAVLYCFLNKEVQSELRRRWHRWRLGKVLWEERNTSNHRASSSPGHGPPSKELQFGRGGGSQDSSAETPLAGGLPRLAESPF

Question: `CC[C@H](C)[C@H](NC(=O)[C@H](CCCN)NC(=O)[C@H](CC(=O)O)NC(=O)[C@H](CC(C)C)NC(=O)[C@](C)(CC(C)C)NC(=O)[C@@H](NC(=O)C(C)(C)NC(=O)[C@H](Cc1ccc(O)cc1)NC(=O)[C@H](CC(=O)O)NC(=O)[C@H](CO)NC(=O)[C@@H](NC(=O)[C@](C)(Cc1ccccc1F)NC(=O)[C@@H](NC(=O)CNC(=O)[C@H](CCC(=O)O)NC(=O)C(C)(C)NC(=O)[C@@H](N)Cc1ccc(O)cc1)[C@@H](C)O)[C@@H](C)O)[C@@H](C)CC)C(=O)N[C@@H](C)C(=O)N[C@@H](CCC(N)=O)C(=O)NC(C)(C)C(=O)N[C@@H](CCCN)C(=O)N[C@@H](Cc1ccccc1)C(=O)N[C@H](C(=O)N[C@@H](CCCCNC(=O)COCCOCCNC(=O)COCCOCCNC(=O)CC[C@H](NC(=O)CCCCCCCCCOc1ccc(C(=O)O)cc1)C(=O)O)C(=O)N[C@@](C)(Cc1ccc(O)cc1)C(=O)N[C@@H](CC(C)C)C(=O)N[C@H](C(=O)N[C@@H](CCCCNC(=O)COCCOCCNC(=O)COCCOCCNC(=O)CC[C@H](NC(=O)CCCCCCCCCOc1ccc(C(=O)O)cc1)C(=O)O)C(=O)NCC(=O)NCC(=O)N1CCC[C@H]1C(=O)N[C@@H](CO)C(=O)N[C@@H](CO)C(=O)NCC(=O)N[C@@H](C)C(=O)N1CCC[C@H]1C(=O)N1CCC[C@H]1C(=O)N1CCC[C@H]1C(=O)N[C@@H](CO)C(N)=O)[C@@H](C)CC)[C@@H](C)CC` [Example 355] was tested. Which Emax (hGIPR; [1]) did it give?
Answer: 86%

Question: And the EC50 (hGIPR; [2])?
Answer: 0.0365 nM

Question: What about the EC50 (hGIPR; hGIPR EC50, nM (SEM, n), 37° C., 0.1% bovine casein and 1.0% human serum albumin, geometric mean (SEM, n)) of the same molecule?
Answer: 1.81 nM

Question: What about the Emax (hGLP-1R; [3]) of the same molecule?
Answer: 109%

Question: And the Emax (hGLP-1R; HEK293, read-out: hGLP-1R Emax, % ± SEM, cAMP, 37° C., 0.1% bovine casein, arithmetic mean)?
Answer: 105%

Question: And the EC50 (hGLP-1R; [4])?
Answer: 0.574 nM

Question: And the EC50 (hGLP-1R; [5])?
Answer: 11.3 nM

Question: What about the EC50 (hGCGR; [6]) of the same molecule?
Answer: > 9950 nM

Question: And the EC50 (hGCGR; [7])?
Answer: > 9950 nM

Question: `CC[C@H](C)[C@H](NC(=O)[C@H](CCCN)NC(=O)[C@H](CC(=O)O)NC(=O)[C@H](CC(C)C)NC(=O)[C@](C)(CC(C)C)NC(=O)[C@@H](NC(=O)C(C)(C)NC(=O)[C@@H](NC(=O)[C@H](CC(=O)O)NC(=O)[C@H](CO)NC(=O)[C@@H](NC(=O)[C@](C)(Cc1ccccc1F)NC(=O)[C@@H](NC(=O)CNC(=O)[C@H](CCC(=O)O)NC(=O)C(C)(C)NC(=O)[C@@H](N)Cc1ccc(O)cc1)[C@@H](C)O)[C@@H](C)O)C(C)C)[C@@H](C)CC)C(=O)N[C@@H](C)C(=O)N[C@@H](CCC(N)=O)C(=O)NC(C)(C)C(=O)N[C@@H](CCCN)C(=O)N[C@@H](Cc1ccccc1)C(=O)N[C@H](C(=O)N[C@@H](CCCCNC(=O)COCCOCCNC(=O)COCCOCCNC(=O)CC[C@H](NC(=O)CCCCCCCCCOc1ccc(C(=O)O)cc1)C(=O)O)C(=O)N[C@@](C)(Cc1ccc(O)cc1)C(=O)N[C@@H](CC(C)C)C(=O)N[C@H](C(=O)N[C@@H](CCCCNC(=O)COCCOCCNC(=O)COCCOCCNC(=O)CC[C@H](NC(=O)CCCCCCCCCOc1ccc(C(=O)O)cc1)C(=O)O)C(=O)NCC(=O)NCC(=O)N1CCC[C@H]1C(=O)N[C@@H](CO)C(=O)N[C@@H](CO)C(=O)NCC(=O)N[C@@H](C)C(=O)N1CCC[C@H]1C(=O)N1CCC[C@H]1C(=O)N1CCC[C@H]1C(=O)N[C@@H](CO)C(N)=O)[C@@H](C)CC)[C@@H](C)CC` [Example 356] was tested. Which Emax (hGIPR; [1]) did it give?
Answer: 82.7%

Question: What about the Emax (hGIPR; HEK293, read-out: hGIPR Emax, % ± SEM, cAMP, 37° C., 0.1% bovine casein, arithmetic mean) of the same molecule?
Answer: 96.2%

Question: What about the EC50 (hGIPR; [2]) of the same molecule?
Answer: 0.0488 nM

Question: And the Emax (hGLP-1R; [3])?
Answer: 93%

Question: What about the EC50 (hGLP-1R; [4]) of the same molecule?
Answer: 0.936 nM

Question: And the EC50 (hGLP-1R; [5])?
Answer: 23.4 nM

Question: And the EC50 (hGCGR; [6])?
Answer: > 9950 nM

Question: What about the EC50 (hGCGR; [7]) of the same molecule?
Answer: > 9950 nM

Question: What does the source list for `CC[C@H](C)[C@H](NC(=O)[C@H](CC(C)C)NC(=O)[C@](C)(Cc1ccc(O)cc1)NC(=O)[C@@H](CCC(=O)O)NC(=O)[C@@H](NC(=O)[C@H](Cc1ccccc1)NC(=O)[C@H](CCCCNC(=O)COCCOCCNC(=O)COCCOCCNC(=O)CC[C@H](NC(=O)CCCCCCCCCCCCC(=O)O)C(=O)O)NC(=O)C(C)(C)NC(=O)[C@H](CCC(N)=O)NC(=O)[C@H](C)NC(=O)[C@H](CCCCNC(=O)COCCOCCNC(=O)COCCOCCNC(=O)CC[C@H](NC(=O)CCCCCCCCCCCCC(=O)O)C(=O)O)NC(=O)[C@H](CCCN)NC(=O)[C@H](CC(=O)O)NC(=O)[C@H](CC(C)C)NC(=O)[C@](C)(CC(C)C)NC(=O)[C@@H](NC(=O)C(C)(C)NC(=O)[C@H](Cc1ccncc1)NC(=O)[C@H](CC(=O)O)NC(=O)[C@H](CO)NC(=O)[C@@H](NC(=O)[C@](C)(Cc1ccccc1F)NC(=O)[C@@H](NC(=O)CNC(=O)[C@H](CCC(=O)O)NC(=O)C(C)(C)NC(=O)[C@@H](N)Cc1ccc(O)cc1)[C@@H](C)O)[C@@H](C)O)[C@@H](C)CC)[C@@H](C)CC)C(=O)N[C@@H](CCC(=O)O)C(=O)NCC(=O)NCC(=O)N1CCC[C@H]1C(=O)N[C@@H](CO)C(=O)N[C@@H](CO)C(=O)NCC(=O)N[C@@H](C)C(=O)N1CCC[C@H]1C(=O)N1CCC[C@H]1C(=O)N1CCC[C@H]1C(=O)N[C@@H](CO)C(N)=O` [Example 357]?
Answer: Emax (hGIPR; [8]): 78.2%; EC50 (hGIPR; [9]): 0.011 nM; Emax (hGLP-1R; HEK293, cAMP, 37° C., 0.1% bovine casein and 1.0% human serum albumin, read-out: hGLP-1R Emax, % ± SEM): 92.8%; EC50 (hGLP-1R; [10]): 0.649 nM; EC50 (hGCGR; [11]): > 10100 nM; EC50 (hGCGR; [12]): > 9950 nM

Question: Which Emax (hGIPR; [8]) does the source give for `CC[C@H](C)[C@H](NC(=O)[C@H](CC(C)C)NC(=O)[C@](C)(Cc1ccc(O)cc1)NC(=O)[C@@H](CCC(=O)O)NC(=O)[C@@H](NC(=O)[C@H](Cc1ccccc1)NC(=O)[C@H](CCC(=O)O)NC(=O)C(C)(C)NC(=O)[C@H](CCC(N)=O)NC(=O)[C@H](C)NC(=O)[C@H](CCCCNC(=O)COCCOCCNC(=O)COCCOCCNC(=O)CC[C@H](NC(=O)CCCCCCCCCCCCC(=O)O)C(=O)O)NC(=O)[C@H](CCCN)NC(=O)[C@H](CC(=O)O)NC(=O)[C@H](CC(C)C)NC(=O)[C@](C)(CC(C)C)NC(=O)[C@@H](NC(=O)C(C)(C)NC(=O)[C@H](Cc1ccncc1)NC(=O)[C@H](CC(=O)O)NC(=O)[C@H](CO)NC(=O)[C@@H](NC(=O)[C@](C)(Cc1ccccc1F)NC(=O)[C@@H](NC(=O)CNC(=O)[C@H](CCC(=O)O)NC(=O)C(C)(C)NC(=O)[C@@H](N)Cc1ccc(O)cc1)[C@@H](C)O)[C@@H](C)O)[C@@H](C)CC)[C@@H](C)CC)C(=O)N[C@@H](CCCCNC(=O)COCCOCCNC(=O)COCCOCCNC(=O)CC[C@H](NC(=O)CCCCCCCCCCCCC(=O)O)C(=O)O)C(=O)NCC(=O)NCC(=O)N1CCC[C@H]1C(=O)N[C@@H](CO)C(=O)N[C@@H](CO)C(=O)NCC(=O)N[C@@H](C)C(=O)N1CCC[C@H]1C(=O)N1CCC[C@H]1C(=O)N1CCC[C@H]1C(=O)N[C@@H](CO)C(N)=O` [Example 358] here?
Answer: 86.2%

Question: And the EC50 (hGIPR; [9])?
Answer: 0.0137 nM

Question: What about the EC50 (hGIPR; 37° C., 0.1% bovine casein and 1.0% human serum albumin, geometric mean (SEM, n), read-out: hGIPR EC50, nM (SEM, n)) of the same molecule?
Answer: 2.06 nM

Question: And the EC50 (hGLP-1R; [10])?
Answer: 0.773 nM

Question: And the EC50 (hGCGR; [11])?
Answer: > 10100 nM

Question: What about the EC50 (hGCGR; [12]) of the same molecule?
Answer: > 9950 nM
